Test results published in patent US10682420B2, “Breast cancer therapy based on hormone receptor status with nanoparticles comprising taxane” (Abraxis BioScience, LLC, priority 2006, dated 2020).

Legend:
[1] = tested on: metastatic breast cancer; details: in vivo
Source text: Patients were HER-2/neu negative with a life expectancy of greater than 3 months. Patients had no prior chemotherapy for metastatic disease, no prior capecitabine therapy, and no prior fluoropyrimidine therapy and paclitaxel chemotherapy given in an adjuvant setting.
The primary endpoint was objective response rate and safety/toxicity, with evaluation performed after every 2 cycles. A secondary endpoint was time to progression.

[2] = tested on: MDA-MB-435 human breast tumor xenografts; assay: HKP and Abraxane in MDA-MB-435 xenografts; assay type: in vivo, mice; details: nineteen weeks of treatment; HKP 250 ug i.v. weekly x16; Abraxane 10 mg/kg/day i.v. x5 days
Source text: The antiangiogenic activity of small synthetic pro-apoptotic peptides composed of two functional domains, one targeting the CD13 receptors (aminopeptidase N) on tumor microvessels and the other disrupting the mitochondrial membrane following internalization have previously been reported. See Nat Med. 1999 September; 5(9): 1032-8.
Methods: MDA-MB-435 human tumor xenografts were established at an average tumor volume of 100 mm^3, mice were randomized into groups of 12-13 animals and treated with HKP, Abraxane®, or HKP and Abraxane®. HKP was delivered i.v. (250 ug), once a week, for 16 weeks. Abraxane® was administered i.v., daily for 5 days at 10 mg/kg/day only for the first week of treatment. The Abraxane® dose used was substantially below its MTD (30 mg/kg/day, qd×5) to prevent the tumor from complete regression so effect of HKP could be noted.

[3] = mouse, in vivo
Source text: Methods: Toxicity of Abraxane® and Taxotere® was compared in a dose-ranging study in nude mice given the drugs on a q4d×3 schedule.

[4] = tested on: cells; assay: In vitro cellular cytotoxicity assay; assay type: cell-based; details: Abraxane 1 to 24 nM
Method: Cells were treated with Abraxane® in a range of concentrations (1 to 24 nM).

[5] = tested on: cells; assay: In vitro clonogenic assay; assay type: cell-based
Method: Cells were treated with saline control, Abraxane® alone, VEGF-A alone, Avastin® alone, Abraxane®+VEGF-A or Abraxane®+Avastin®.

[6] = tested on: Luciferase-expressing MDA-MB-231 human breast cancer xenografts; assay: Abraxane and Avastin on growth of luciferase-expressing MDA-MB-231 xenografts; assay type: in vivo, female nude (nu/nu) mice
Method: Abraxane®, either alone or in combination, was administered at 10 mg/kg/day daily for 5 days in two cycles separated by 1 week. Some groups were administered Abraxane® at 10 mg/kg daily for 5 days for only one cycle. […] Mice were monitored for tumor growth and drug toxicity. Mice were sacrificed when the mean tumor volume in the saline-treated control group reached 2000 mm^3.
Tumor growth inhibition (TGI) was calculated by comparing mean tumor volume of test groups to that of the control group at the last measurement of the control group.

[7] = tested on: metastasis of luciferase-expressing MDA-MB-231 tumor cells to the lymph nodes and lungs; assay: Abraxane and Avastin on metastasis by luciferase activity; assay type: in vivo, female nude (nu/nu) mice
Method: Abraxane®, either alone or in combination, was administered at 10 mg/kg/day daily for 5 days in two cycles separated by 1 week. Some groups were administered Abraxane® at 10 mg/kg daily for 5 days for only one cycle. […] Mice were sacrificed when the mean tumor volume in the saline-treated control group reached 2000 mm^3. Axillary lymph nodes and both lobes of the lungs were removed from each mouse and cellular extracts were prepared. The presence of MDA-MB-231 cells in these tissues was evaluated by analysis of luciferase activity and was an indicator of metastasis from the primary tumor. Luciferase activity was measured in extracts from 10 lymph nodes and both lobes of the lungs on the day of sacrifice (day 65 after tumor implantation). A value greater than 500 light units per 20 μl lysate was rated as positive for presence of MDA-MB-231 cells and for incidence of metastasis.
As used herein, incidence refers to the presence of luciferase activity in tissue from each mouse.

In the case of `CCCCCOC(=O)Nc1nc(=O)n([C@@H]2O[C@H](C)[C@@H](O)[C@H]2O)cc1F` [capecitabine], the “main toxicity related to the agent within the combination” value [1] is reported as “hand foot syndrome”.
With CNGRC-GG-d(KLAKLAK)2 [HKP] the tumor volume [2] was 4,372 mm^3.
For Taxotere®, the “maximum tolerated dose (MTD)” value [3] was 15 mg/kg.
With Avastin®: anti-VEGF antibody the “effect of addition on in vitro cytotoxicity of Abraxane” value [4] was “increased the in vitro cytotoxicity of Abraxane®”, the “number of colonies formed” value [5] was “slight reduction in the number of colonies formed” and the “% TGI” value ([6]; Avastin Dose 4 mg/kg) was 12.56%. The “Mean Tumor Volume (mm^3)” value ([6]; Avastin Dose 4 mg/kg twice a week for 6 weeks) was 2089 ± 251 mm^3, the “% Complete Regression” value ([6]; Avastin Dose 4 mg/kg, day 65) was 0% and the “metastasis by luciferase activity in tissue extracts” value [7] was “did not significantly inhibit metastasis”.
